Source: patent US4654368A, “Tri-organotin silatrane derivatives and pesticidal compositions, fungicides or antifouling agents comprising said compounds as active ingredients” (Nitto Kasei Co., Ltd., priority 1984, dated 1987)

Legend:
[1] = tested on: carmine mites (Tetranychus telarius L.); assay: Miticidal effect on carmine mites; format: in vivo; design: key: -: Hardly any injury was observed.; +: Some injury was observed.; ++: The same injury as in the non-treated area was noted; conditions: 500 ppm active ingredient, spray plus soil, kidney beans, 8 days later
Method: Female imagoes of carmine mites were caused to live at a rate of 10 per leaf on bineless kidney beans (in the primary leaf stage) in pots 7 days after sowing, and kept in a constant temperature chamber at 25° C. Six days later, a chemical obtained by diluting a wettable powder of each of compounds Nos. 4-6, 9-13, 15, 16, 21, 22, 25, 28-30, 33, 34, 36, 37 and 38 with water to an active ingredient concentration of 500 ppm was sprayed at a rate of 10 ml per pot, and at the same time, 2 ml of the chemical was poured into the soil. Eight days later, injuries to the plants by the mites were examined.
The degree of injury is shown by -, + and ++ as follows: […]

[2] = tested on: Penicillium citrinum ATCC 9849; assay: Test on fungicidal effect on fungi (agar medium diluting method); format: cell-based; conditions: PDA, 27° C., cultivation period 4 days
Method: (§1) By an agar medium diluting method, the fungicidal activities of compounds Nos. 12, 17, 18, 23, 24, 26, 27 and 32 of the invention on fungi doing harm to industrial products and materials were examined.
(§2) A hypha piece, 5 mm in diameter, of each of the fungi indicated in Table 3 was inoculated in a potato dextrose agar medium (PDA) containing each of the above compounds, and cultivated at 27° C. After the lapse of a predetermined period, the growth state of the fungus was observed, and the minimum inhibitory concentration of the compound was determined.

[3] = tested on: Cladosporium herbarum TAMF 517; assay: as above; format: cell-based; conditions: PDA, 27° C., cultivation period 4 days
Method: as §1, §2

[4] = tested on: Aspergillus niger ATCC 6275; assay: as above; format: cell-based; conditions: PDA, 27° C., cultivation period 4 days
Method: as §1, §2

[5] = tested on: Caetomium globosum ATCC 6205; assay: as above; format: cell-based; conditions: PDA, 27° C., cultivation period 3 days (compound 18: 4 days)
Method: as §1, §2

[6] = tested on: tobacco cutworms (Prodenia litura Fabrficius); assay: Test on insecticidal efficacy on tobacco cutworms; format: in vivo; conditions: 500 ppm in artificial feed, 4th-instar larvae, 6 days; wettable powder of Formulation Example 5 (contains Fenitrothion)
Method: A wettable powder of each of compounds Nos. 3, 7, 8, 9, 11, 12, 13, 14, 17, 18 and 31 of the invention obtained in accordance with Formulation Example 5 was diluted with water to 200 times (corresponding to a concentration of 500 ppm). Two milliliters of the dilution was impregnated in 13 g of an artificial feed for tobacco cutworms, and the feed was put in a polyethylene cup having a diameter of 11 cm. Ten 4th-instar larvae of tobacco cutworms were released into the cup, and examined for mortality 6 days later. The above experiment was carried out through two replicates.

Plasmopara viticola = assay: Test on fungicidal effect on downy mildew of grape; format: in vivo; conditions: sprayed on grape seedlings
Excerpt: Sandy soil was filled in plastic pots, and seeds of grape (variety: Neomuscat) were sown, and grown for about 1 month in a greenhouse to obtain young seedlings of grape in the 2-3 leaf stage. A water dilution of an emulsifiable concentrate of a wettable powder of each of the test compounds was sprayed onto the leaves of these seedlings so that the chemical adhered fully to the surfaces of the leaves. After drying the chemical in air, a suspension of conidospores of a […] pathogen of grape (Plasmopara viticola) was inoculated in the seedling by spraying. The seedlings were placed for 2 days in a high humidity condition at 23° C., and subsequently cultivated for 14 days in a greenhouse kept at 20° to 25° C. to cause onset of the disease. Thereafter, the state of the disease was observed.
The degree of disease was calculated by the following method. The examined leaves were classified by indices of 0, 0.5, 1, 2 and 4 according to the degrees of appearance of lesions, and the degree of disease was calculated from the following equation.
0: No fungus colony or lesion was noted on the surface of the leaves.
The control index was calculated from the following equation. [formula]

[7] = tested on: marine animals and plants; assay: Test on antifouling effects on marine animals and plants in the sea; format: in vivo; conditions: antifouling paint on vinyl chloride plate, Owase Bay
Method: A ship bottom antifouling paint was prepared by adding 24 g of Rosin WW, 12 g of a vinyl copolymer, 4 g of tricresyl phosphate, 10 g of bentonite, 20 g of baryta, 20 g of red iron oxide, 35 g of xylene and 35 g of methyl isobutyl ketone to 40 g of each of compounds Nos. 2, 8, 14, 17, 20 and 32 of the invention and vigorously stirring the mixture at room temperature for 1 hour. The paint was coated on both surfaces of a rigid vinyl chloride resin plate, 17×9×0.3 cm in size, to a dry thickness of about 200 microns. The coated plate was submerged in the sea in Owase Bay, Mie Prefecture, Japan for 12 months, and its fouled state was regularly observed.
The symbols in the table show the following.

Culex pipiens = assay: Test on insecticidal effect on Culex pipiens; format: in vivo; conditions: 3.5 ppm, wettable powder of Formulation Example 5 (contains Fenitrothion); for Death rate: final-instar larvae, next day, 1440 min; for Emergence inhibition rate: when all larvae in non-treated area emerged
Method: A wettable powder of each of compounds Nos. 2, 7, 8, 11, 13, 14, 17, 18 and 31 obtained in accordance with Formulation Example 5 was diluted with water to 3.5 ppm. One hundred milliliters of the dilution was put in each of 180 ml. polyethylene cups and 20 final-instar larvae of Culex pipiens were released into the cup. On the next day, the larvae were examined for mortality.
Thereafter, feeds were added to the test areas, and when all larvae n the non-treated area emerged, the emergence inhibition rate was examined.
The death rate and the emergence inhibition rate were rated by three grades as follows: […]

With `CCC[CH2][Sn]([CH2]CCC)([CH2]CCC)[S]CCC[Si]12OC(C)CN(CC(C)O1)CC(C)O2` (stereo not shown) [compound 12] the Degree of injury [1] was “-”, the Minimum inhibitory concentration [2] was under 12.5 ppm and the Minimum inhibitory concentration [3] was under 12.5 ppm. It also gave a Minimum inhibitory concentration [4] of under 12.5 ppm, a Minimum inhibitory concentration [5] of under 12.5 ppm and a Death rate [6] of 100%. For the same compound, the Control index (Plasmopara viticola; 12.5 ppm active ingredient) was 100%, the Control index (Plasmopara viticola; 50 ppm active ingredient) was 100% and the Control index (Plasmopara viticola; 200 ppm active ingredient) was 100%.
For `CC[CH2][Sn]([CH2]CC)([CH2]CC)[S]CCC[Si]12OCCN(CCO1)CCO2` [compound 17], the Minimum inhibitory concentration [2] was under 2.5 ppm, the Minimum inhibitory concentration [3] was under 12.5 ppm and the Minimum inhibitory concentration [4] was under 2.5 ppm. For the same compound, the Minimum inhibitory concentration [5] was under 2.5 ppm, the Death rate [6] was 100% and the “Fouled state, period of submerging 4 months” value [7] was “.circle”. For the same compound, the “Fouled state, period of submerging 8 months” value [7] was “.circle”, the “Fouled state, period of submerging 12 months” value [7] was “.circle” and the Death rate (Culex pipiens) was “C (less than 10%)”. For the same compound, the Emergence inhibition rate (Culex pipiens) was “A (90% or higher)”.
`CC[CH2][Sn]([CH2]CC)([CH2]CC)[S]CCC[Si]12OC(C)CN(CC(C)O1)CC(C)O2` (stereo not shown) [compound 18] gave a Minimum inhibitory concentration [2] of under 12.5 ppm, a Minimum inhibitory concentration [3] of under 12.5 ppm and a Minimum inhibitory concentration [4] of under 2.5 ppm. For the same compound, the Minimum inhibitory concentration [5] was under 12.5 ppm, the Death rate [6] was 100% and the Death rate (Culex pipiens) was “B (less than 90% to 10%)”. The Emergence inhibition rate (Culex pipiens) was “A (90% or higher)”.
In the case of `CC[CH2][Sn]([CH2]CC)([CH2]CC)[S]CCC[Si]12OCCN(CC(CC)O1)CC(CC)O2` (stereo not shown) [compound 23], the Minimum inhibitory concentration [2] was under 2.5 ppm, the Minimum inhibitory concentration [3] was under 2.5 ppm and the Minimum inhibitory concentration [4] was under 2.5 ppm. For the same compound, the Minimum inhibitory concentration [5] was under 2.5 ppm.
For `CCC[CH2][Sn]([CH2]CCC)([CH2]CCC)[S]CCC[Si]12OCCN(CCO1)CC(C)O2` (stereo not shown) [compound 24], the Minimum inhibitory concentration [2] was under 12.5 ppm, the Minimum inhibitory concentration [3] was under 12.5 ppm and the Minimum inhibitory concentration [4] was under 12.5 ppm. The Minimum inhibitory concentration [5] was under 12.5 ppm.
`CC(C)[CH2][Sn]([CH2]C(C)C)([CH2]C(C)C)[S]CCC[Si]12OCCN(CCO1)CCO2` [compound 26] was tested, and the Minimum inhibitory concentration [2] was under 12.5 ppm, the Minimum inhibitory concentration [3] was under 12.5 ppm and the Minimum inhibitory concentration [4] was under 12.5 ppm. The Minimum inhibitory concentration [5] was under 12.5 ppm.
In the case of `CC(C)[CH2][Sn]([CH2]C(C)C)([CH2]C(C)C)[S]CCC[Si]12OC(C)CN(CC(C)O1)CC(C)O2` (stereo not shown) [compound 27], the Minimum inhibitory concentration [2] was under 12.5 ppm, the Minimum inhibitory concentration [3] was under 12.5 ppm and the Minimum inhibitory concentration [4] was under 12.5 ppm. For the same compound, the Minimum inhibitory concentration [5] was under 12.5 ppm.
`CCC1CN2CC(C)O[Si](CCC[S][Sn]([c]3ccccc3)([c]3ccccc3)[c]3ccccc3)(OC(C)C2)O1` (stereo not shown) [compound 32] was tested, and the Minimum inhibitory concentration [2] was under 12.5 ppm, the Minimum inhibitory concentration [3] was under 12.5 ppm and the Minimum inhibitory concentration [4] was under 12.5 ppm. The Minimum inhibitory concentration [5] was under 12.5 ppm, the “Fouled state, period of submerging 4 months” value [7] was “.circle” and the “Fouled state, period of submerging 8 months” value [7] was “.circle”. For the same compound, the “Fouled state, period of submerging 12 months” value [7] was “.circle”.
